Results from PMC6301270 (MedChemComm, 2018).

Each compound was assayed on T.b. brucei (strain 427) bloodstream form parasites (assay: T.b. brucei single concentration screen (10 μM)). Settings: Trypanosoma brucei, read-out: T.b.brucei % viability (10 µM).

Structure (SMILES)	viability at 10 µM [%]
Clc1ccc(Cl)c(CO[C@H]2CCCC[C@@H]2n2ccnc2)c1 [MMV676048, Clc1ccc(Cl)c(CO[C@H]2CCCC[C@@H]2n3ccnc3)c1]	104
CS(=O)(=O)N1CCC(Cn2nc(Cc3cccc4ccccc34)c3c(N)ncnc32)CC1 [MMV676050, CS(=O)(=O)N1CCC(Cn2nc(Cc3cccc4ccccc34)c5c(N)ncnc25)CC1]	117
COc1cc(NC(=O)Cc2nn(C)c(=O)c3ccccc23)ccc1Cl [MMV676053, COc1cc(NC(=O)CC2=NN(C)C(=O)c3ccccc23)ccc1Cl]	100
CC(C)(C)OC(=O)N1CCN(c2cc(-c3ccc(Oc4ccccc4)cc3)n[nH]2)CC1 [MMV676057, CC(C)(C)OC(=O)N1CCN(CC1)c2cc(n[nH]2)c3ccc(Oc4ccccc4)cc3]	21
CCCCc1ccc(NC(=O)Nc2ccc(O[C@H]3CCCC[C@@H]3N(C)c3ccccc3)c(F)c2)cc1 [MMV676063, CCCCc1ccc(NC(=O)Nc2ccc(O[C@H]3CCCC[C@@H]3N(C)c4ccccc4)c(F)c2)cc1]	91
CC(=O)N(CCN(C(=O)c1ccc(F)cc1)c1ccccc1)c1ccccc1 [MMV676064, CC(=O)N(CCN(C(=O)c1ccc(F)cc1)c2ccccc2)c3ccccc3]	100
Clc1cccc(CO[C@H]2CCc3ccccc3[C@@H]2n2ccnn2)c1 [MMV676159, Clc1cccc(CO[C@H]2CCc3ccccc3[C@@H]2n4ccnn4)c1]	96
c1ccc(Oc2ccc(-c3cc(CN4CCOCC4)[nH]n3)cc2)cc1 [MMV676161, C(N1CCOCC1)c2cc(n[nH]2)c3ccc(Oc4ccccc4)cc3]	43
O=C(Nc1ccccc1-c1nc2c(C(=O)O)cccc2o1)c1ccccc1 [MMV676162, OC(=O)c1cccc2oc(nc12)c3ccccc3NC(=O)c4ccccc4]	101
Nc1ncnc2c1c(Cc1cccc3ccccc13)nn2CC1CCNCC1 [MMV676182, Nc1ncnc2c1c(Cc3cccc4ccccc34)nn2CC5CCNCC5]	98
COC(=O)c1cccc2oc(-c3cccc(OC)c3NC(=O)c3cc(-c4ccccc4)on3)nc12 [MMV676186, COC(=O)c1cccc2oc(nc12)c3cccc(OC)c3NC(=O)c4cc(on4)c5ccccc5]	90
CC(C)C(Oc1cccc2ccccc12)C(=O)O (stereo not shown) [MMV676191, CC(C)C(Oc1cccc2ccccc12)C(=O)O]	103
O=C(c1ccc(F)cc1)N(CCNc1ccccc1)c1ccccc1 [MMV676204, Fc1ccc(cc1)C(=O)N(CCNc2ccccc2)c3ccccc3]	97
CN1CCN(c2nccc3nc(-c4ccc(F)c(F)c4)[nH]c23)CC1 [MMV676260, CN1CCN(CC1)c2nccc3nc([nH]c23)c4ccc(F)c(F)c4]	49
C[C@H](C(N)=O)N1CCCC[C@H]1c1ccc(OCc2cccc(F)c2)cc1 [MMV676269, C[C@@H](N1CCCC[C@H]1c2ccc(OCc3cccc(F)c3)cc2)C(=O)N]	92
C[C@H](C(N)=O)N1CCCC[C@@H]1c1ccc(OCc2cccc(F)c2)cc1 [MMV676270, C[C@@H](N1CCCC[C@@H]1c2ccc(OCc3cccc(F)c3)cc2)C(=O)N]	97
Cc1cnc(CCNC(=O)c2cc(-c3ccc(Cl)cc3)cs2)[nH]1 [MMV676350, Cc1cnc(CCNC(=O)c2cc(cs2)c3ccc(Cl)cc3)[nH]1]	47
Nc1ncc(Br)cc1-c1nc2cc(Cl)cnc2[nH]1 [MMV676358, Nc1ncc(Br)cc1c2nc3cc(Cl)cnc3[nH]2]	98
Brc1c(-c2ccc3c(c2)OCO3)nc2ncccn12 [MMV676377, Brc1c(nc2ncccn12)c3ccc4OCOc4c3]	96
COc1cccc(OCC(=O)c2ccc(Br)cc2)c1 [MMV676379, COc1cccc(OCC(=O)c2ccc(Br)cc2)c1]	104

Structure (SMILES)	viability at 10 µM [%]
CC(=O)Nc1ccc(NC(=O)c2cc(-c3cc(Cl)ccc3O)[nH]n2)cc1 [MMV676380, CC(=O)Nc1ccc(NC(=O)c2cc([nH]n2)c3cc(Cl)ccc3O)cc1]	78
Cn1ncc2c(N3CCOCC3)nc(NCCc3c[nH]c4ccccc34)nc21 [MMV676382, Cn1ncc2c(nc(NCCc3c[nH]c4ccccc34)nc12)N1CCOCC1]	93
CCC(Sc1nc2ccccc2o1)C(=O)Nc1nccs1 (stereo not shown) [MMV676383, CCC(Sc1oc2ccccc2n1)C(=O)Nc3nccs3]	86
N#Cc1nc(-c2ccccc2F)oc1NCCc1ccccc1 [MMV676384, Fc1ccccc1c2oc(NCCc3ccccc3)c(n2)C#N]	107
Cc1cccc(Cn2ccc(NC(=O)c3ccc4c(c3)OCO4)n2)c1 [MMV676386, Cc1cccc(Cn2ccc(NC(=O)c3ccc4OCOc4c3)n2)c1]	95
COc1cccc(-n2nnnc2S(=O)(=O)Cc2ccccc2)c1 [MMV676388, COc1cccc(c1)n2nnnc2S(=O)(=O)Cc3ccccc3]	87
O=C(c1[nH]nc2c1CCCC2)N1CCN(Cc2ccc3c(c2)OCO3)CC1 [MMV676389, O=C(N1CCN(Cc2ccc3OCOc3c2)CC1)c4[nH]nc5CCCCc45]	95
O=C(Nc1cccnc1)c1c(O)c2cccc3c2n(c1=O)CC3 [MMV676395, OC1=C(C(=O)Nc2cccnc2)C(=O)N3CCc4cccc1c34]	106
CCS(=O)(=O)N(Cc1ccco1)Cc1cc2ccc(C)cc2nc1O [MMV676398, CCS(=O)(=O)N(Cc1occc1)Cc2cc3ccc(C)cc3nc2O]	86
c1coc(CNc2nc(N3CCCCC3)nc3ccccc23)c1 [MMV676401, C(Nc1nc(nc2ccccc12)N3CCCCC3)c4occc4]	58
CC(C)n1ncc2c(C(=O)NCC(c3cccs3)N3CCOCC3)cc(-c3ccccc3)nc21 (stereo not shown) [MMV676406, CC(C)n1ncc2c(cc(nc12)c3ccccc3)C(=O)NCC(N4CCOCC4)c5cccs5]	61
N#Cc1nc(-c2ccccc2)oc1S(=O)(=O)c1ccc(Cl)cc1 [MMV676412, Clc1ccc(cc1)S(=O)(=O)c2oc(nc2C#N)c3ccccc3]	28
Cc1ccc(NC(=O)CC2COc3ccccc3O2)cc1Cl (stereo not shown) [MMV676431, Cc1ccc(NC(=O)CC2COc3ccccc3O2)cc1Cl]	77
Cc1ccc2nc(Cl)c(CNCc3cccs3)cc2c1 [MMV676439, Cc1ccc2nc(Cl)c(CNCc3cccs3)cc2c1]	99
CC(C)c1ncc(-c2ccncc2)c([C@H]2CC[C@H](CNC(=O)c3cccnc3)CC2)n1 [MMV676442, CC(C)c1ncc(c2ccncc2)c(n1)[C@@H]3CC[C@@H](CNC(=O)c4cccnc4)CC3]	103
O=C(NC1CCCCC1)N1CCN(Cc2ccc3c(c2)OCO3)CC1 [MMV676444, O=C(NC1CCCCC1)N2CCN(Cc3ccc4OCOc4c3)CC2]	109
CCCn1c(CNc2ccccc2O)nc2ccccc21 [MMV676445, CCCn1c(CNc2ccccc2O)nc3ccccc13]	109
CCc1nc2ccccc2n1CC(O)COc1cc(C)ccc1Cl (stereo not shown) [MMV676449, CCc1nc2ccccc2n1CC(O)COc3cc(C)ccc3Cl]	83
CCOC(=O)c1cc(-c2csc(Nc3c(C)cc(C)cc3C)n2)on1 [MMV676461, CCOC(=O)c1cc(on1)c2csc(Nc3c(C)cc(C)cc3C)n2]	102
CCOc1ccc(OCC(=O)Nc2cc(C)cc(C)c2)cc1 [MMV676470, CCOc1ccc(OCC(=O)Nc2cc(C)cc(C)c2)cc1]	75

Structure (SMILES)	viability at 10 µM [%]
COc1cccc(OC)c1C(=O)Nc1ccc(Cl)c(-c2nc3ccccc3s2)c1 [MMV676472, COc1cccc(OC)c1C(=O)Nc2ccc(Cl)c(c2)c3nc4ccccc4s3]	100
COc1ccccc1OCCCCn1c(C2CC2)nc2ccccc21 [MMV676474, COc1ccccc1OCCCCn2c(nc3ccccc23)C4CC4]	93
Cc1cc(C)cc(COc2ccc3c(C)c(CCC(=O)O)c(=O)oc3c2C)c1 [MMV676476, CC1=C(CCC(=O)O)C(=O)Oc2c(C)c(OCc3cc(C)cc(C)c3)ccc12]	94
COC(=O)c1c(NC(=O)c2cc3ccccc3oc2=O)sc2c1CCN(Cc1ccccc1)C2 [MMV676480, COC(=O)c1c2CCN(Cc3ccccc3)Cc2sc1NC(=O)C4=Cc5ccccc5OC4=O]	101
O=C(Nc1nnc(S)s1)c1cc(Br)ccc1Cl [MMV676492, Sc1nnc(NC(=O)c2cc(Br)ccc2Cl)s1]	106
O=C(Nc1nnc(-c2ccc(Cl)s2)o1)c1ccc(Cl)s1 [MMV676501, Clc1ccc(s1)C(=O)Nc2oc(nn2)c3ccc(Cl)s3]	93
Cc1ccc2oc(-c3cc(NC(=O)Cc4ccccc4)ccc3Cl)nc2c1 [MMV676509, Cc1ccc2oc(nc2c1)c3cc(NC(=O)Cc4ccccc4)ccc3Cl]	99
O=C(c1cc2ccccc2o1)N1CCN(Cc2ccc3c(c2)OCO3)CC1 [MMV676520, O=C(N1CCN(Cc2ccc3OCOc3c2)CC1)c4oc5ccccc5c4]	97
Nc1cccnc1Nc1ccc(Cl)cc1 [MMV676524, Nc1cccnc1Nc2ccc(Cl)cc2]	110
COc1ccc(-c2cc(NC(=O)c3ccc(F)cc3Cl)ccc2OC)cc1 [MMV676526, COc1ccc(cc1)c2cc(NC(=O)c3ccc(F)cc3Cl)ccc2OC]	93
Cc1cccc(NC(=O)c2cc(S(=O)(=O)N(C)c3ccc(F)cc3)ccc2Cl)n1 [MMV676528, CN(c1ccc(F)cc1)S(=O)(=O)c2ccc(Cl)c(c2)C(=O)Nc3cccc(C)n3]	96
COCC(C)NC(=O)CSc1ncnc2sc(-c3ccccc3)cc12 (stereo not shown) [MMV676536, COCC(C)NC(=O)CSc1ncnc2sc(cc12)-c1ccccc1]	97
O=C(NCCc1c[nH]c2ccccc12)c1cc2ccccc2oc1=O [MMV676539, O=C(NCCc1c[nH]c2ccccc12)C3=Cc4ccccc4OC3=O]	83
COc1ccc(Nc2ccccc2NC(=O)c2ccc(O)nc2)cc1 [MMV676554, COc1ccc(Nc2ccccc2NC(=O)c3ccc(O)nc3)cc1]	115
Cc1nnc(NCc2cccc(Cl)c2)c2ccccc12 [MMV676555, Cc1nnc(NCc2cccc(Cl)c2)c3ccccc13]	97
CC1=NN(c2nc3ccccc3s2)C(=O)C1Cc1cccc2ccccc12 (stereo not shown) [MMV676558, CC1=NN(C(=O)C1Cc2cccc3ccccc23)c4nc5ccccc5s4]	45
COc1ccc(-c2nc(-c3cccc(NC(=O)Cc4ccc(F)cc4)c3)no2)cc1OC [MMV676571, COc1ccc(cc1OC)c2onc(n2)c3cccc(NC(=O)Cc4ccc(F)cc4)c3]	53
O=C(NC1=NCCS1)c1sc2cc(F)ccc2c1Cl [MMV676584, Fc1ccc2c(Cl)c(sc2c1)C(=O)NC3=NCCS3]	82
